Article PMC3711446 (2013)

T1: MBNL1N, Cy3-labeled (UniProt Q9NR56 1-253)
T1 sequence: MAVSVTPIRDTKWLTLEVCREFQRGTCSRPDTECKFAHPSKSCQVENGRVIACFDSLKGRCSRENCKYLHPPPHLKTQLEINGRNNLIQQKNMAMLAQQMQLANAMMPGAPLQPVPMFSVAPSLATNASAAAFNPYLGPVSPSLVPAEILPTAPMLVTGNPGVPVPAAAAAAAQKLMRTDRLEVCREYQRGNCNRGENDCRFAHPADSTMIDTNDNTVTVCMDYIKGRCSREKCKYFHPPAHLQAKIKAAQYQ


Key:
[1] = system: TAMRA-(CUG)6 (RNA, repeat) CUGCUGCUGCUGCUGCUG; experiment: fluorescence titration; details: PBS 1x (137 mM NaCl, 2.7 mM KCl); PBS pH 7.4, 20 °C; 20 nM RNA
[2] = biological target: T1, MBNL1N, Cy3-labeled; experiment: single-molecule TIRFM

| KD [1] | Molecule | Kd [2] |
| --- | --- | --- |
| 318 ± 15 nM | Nc1nc(N)nc(NCCCCNc2c3ccccc3nc3c(C(=O)NCCCNCCCNCCCNC(=O)c4cccc5c(NCCCCNc6nc(N)nc(N)n6)c6ccccc6nc45)cccc23)n1 |  |
| 66000 ± 2000 nM | CNC(=O)c1ccc2nc3ccccc3c(NCCCCNc3nc(N)nc(N)n3)c2c1 |  |
|  | GCUGCUGUUCGCUGCUG (structured_RNA, 3' TEG-biotin) [(CUG)4 TIRF construct] | 3.1 ± 0.1 nM |
